{"source": "patent US20210059959A1", "about": "“USE OF CANNABINOIDS IN THE TREATMENT OF MENTAL DISORDERS” (GW Pharma Limited, priority 2015, published 2021)", "key": {"rats treated with MK-801": {"tested_on": "rats treated with MK-801", "conditions": "cited from earlier work"}, "[1]": {"tested_on": "participants with schizophrenia or related psychotic disorder", "assay": "Positive and Negative Syndrome Scale (PANSS), double-blind placebo-controlled study of CBD as adjunctive therapy", "format": "in vivo, human", "procedure": "Example 1 below describes the use of a highly purified cannabis extract comprising cannabidiol (CBD) in a human clinical trial. Example 1 describes data produced in a double-blind, randomised, placebo-controlled, parallel group study of highly purified CBD as adjunctive therapy in first line treatment of schizophrenia or related psychotic disorder.\nAn eight-week, multi-centre, double-blind, randomised, placebo-controlled, parallel group study was conducted with the aim to determine the efficacy, safety and tolerability of highly purified CBD as adjunctive therapy in first line treatment of schizophrenia or related psychotic disorder.\nThis study evaluated the efficacy of highly purified CBD compared with placebo on the participant's PANSS Total score, ‘P’, ‘N’, ‘G’, SANS and BACS scores.\nChanges from baseline in PANSS scores (Total, ‘P’, ‘N’ and ‘G’), SANS and BACS were recorded at the start of the study (baseline) and at the end of treatment (after 6 weeks treatment with CBD or placebo).\nFor inclusion in the study participants were required to be male or female aged 18 to 65 years, diagnosed with schizophrenia or a related psychotic disorder (such as schizoaffective or schizophreniform disorder) as defined by the Diagnostic and Statistical Manual of Mental Disorders Version 4. Participants must have been treated for a minimum of four-weeks and be on a stable dose of their current antipsychotic medication. […] A PANSS score in excess of 60 infers that the patient has symptoms related to schizophrenia or related disorders.\nThe participants were randomised to one of two treatment groups which each consisted of 39 participants. Treatment was administered as either 5 ml CBD (100 mg/ml) oral solution to be taken twice daily or 5 ml matched placebo oral solution to be taken twice daily.\nPositive and Negative Syndrome Scale (PANSS)\nThe PANSS is a medical scale completed by a trained rater and is used for measuring symptom severity of participants with schizophrenia or related psychotic disorder. The name refers to the two types of symptoms in schizophrenia, as defined by the American Psychiatric Association: positive symptoms, which refer to an excess or distortion of normal functions (e.g. hallucinations and delusions), and negative symptoms, which represent a diminution or loss of normal functions.\nIt is a 30 item rating instrument that assesses the positive and negative symptoms of schizophrenia as well as symptoms of general psychopathology. A PANSS Total score is derived from the sum of the 30 items and the PANSS items are also grouped into three subscales: Positive (‘P’), Negative (‘N’), and General (‘G’). Individual items are rated on a seven point scale, where 1=absent and 7=extreme. This scale was measured at each assessment visit (Visit 1-4).\nThe minimum score PANSS scoring system is 30 and patients with a score of higher than 60 are considered to still be suffering psychotic symptoms.\nPANSS ‘P’ scale measures the severity of: • i) Delusions • ii) Conceptual disorganisation • iii) Hallucinations • iv) […] • v) Grandiosity • vi) Suspiciousness/persecution • vii) Hostility\nPANSS ‘N’ scale measures the severity of: • i) Blunted affect • ii) Emotional withdrawal • iii) Poor rapport • iv) Passive/apathetic social withdrawal • v) Difficulty in abstract thinking • vi) Lack of spontaneity and flow of conversation • vii) Stereotyped thinking\nPANSS ‘G’ psychopathology scale measures the severity of: • i) Somatic concern • ii) Anxiety • iii) Guilt feelings • iv) Tension • v) Mannerisms and posturing • vi) Depression • vii) Motor retardation • viii) Uncooperativeness • ix) Unusual thought content • x) Disorientation • xi) Poor attention • xii) Lack of judgment and insight • xiii) Disturbance of volition • xiv) Poor impulse control • xv) Preoccupation • xvi) Active social avoidance"}, "[2]": {"conditions": "CBD adjunct, 6 weeks, all patients"}, "[3]": {"conditions": "CBD adjunct, 6 weeks, patients on amisulpride"}, "[4]": {"conditions": "CBD adjunct, 6 weeks, patients on aripiprazole"}, "[5]": {"conditions": "CBD adjunct, 6 weeks, patients on olanzapine"}, "[6]": {"conditions": "CBD adjunct, 6 weeks, patients on other antipsychotics"}, "[7]": {"conditions": "CBD adjunct, 6 weeks, patients on quetiapine"}, "[8]": {"conditions": "CBD adjunct, 6 weeks, patients on risperidone"}}}
{"compound": "C=C(C)[C@@H]1CCC(C)=C[C@H]1c1c(O)cc(CCCCC)cc1O", "note": "[CBD, Cannabidiol]", "values": [{"measurement": "Effect on social deficits", "setting": "rats treated with MK-801", "result": "reverse social deficits"}, {"measurement": "Change in baseline scores, PANSS total score", "setting": "[1]; [2]", "result": "−11.4"}, {"measurement": "Change in baseline scores, PANSS ‘G’ score", "setting": "[1]; [2]", "result": "−5.3"}, {"measurement": "Change in baseline scores, PANSS ‘N’ score", "setting": "[1]; [2]", "result": "−3.1"}, {"measurement": "Change in baseline scores, PANSS ‘P’ score", "setting": "[1]; [2]", "result": "−3.1"}, {"measurement": "Change in baseline scores, PANSS total", "setting": "[1]; [3]", "result": "−11.3"}, {"measurement": "Change in baseline scores, PANSS ‘P’ score", "setting": "[1]; [3]", "result": "−4.0"}, {"measurement": "Change in baseline scores, PANSS total", "setting": "[1]; [4]", "result": "−12.3"}, {"measurement": "Change in baseline scores, PANSS ‘P’ score", "setting": "[1]; [4]", "result": "−3.8"}, {"measurement": "Change in baseline scores, PANSS total", "setting": "[1]; [5]", "result": "−17.5"}, {"measurement": "Change in baseline scores, PANSS ‘P’ score", "setting": "[1]; [5]", "result": "−3.9"}, {"measurement": "Change in baseline scores, PANSS total", "setting": "[1]; [6]", "result": "−10.3"}, {"measurement": "Change in baseline scores, PANSS ‘P’ score", "setting": "[1]; [6]", "result": "−1.4"}, {"measurement": "Change in baseline scores, PANSS total", "setting": "[1]; [7]", "result": "−7.5"}, {"measurement": "Change in baseline scores, PANSS ‘P’ score", "setting": "[1]; [7]", "result": "−1.7"}, {"measurement": "Change in baseline scores, PANSS total", "setting": "[1]; [8]", "result": "−7.8"}, {"measurement": "Change in baseline scores, PANSS ‘P’ score", "setting": "[1]; [8]", "result": "−2.6"}, {"measurement": "Responder status for change in baseline scores, PANSS ‘P’ score", "setting": "[1]; CBD adjunct, patients with >= 20% change from baseline, P = 0.0679 vs placebo", "result": 42.9, "unit": "%"}, {"measurement": "Responder status for change in baseline scores, PANSS total score", "setting": "[1]; CBD adjunct, patients with >= 20% change from baseline, P = 0.0896 vs placebo", "result": 28.6, "unit": "%"}, {"measurement": "Responder status for change in baseline scores, PANSS ‘G’ score", "setting": "[1]; CBD adjunct, patients with >= 20% change from baseline, P = 0.2598 vs placebo", "result": 28.6, "unit": "%"}, {"measurement": "Responder status for change in baseline scores, PANSS ‘N’ score", "setting": "[1]; CBD adjunct, patients with >= 20% change from baseline, P = 0.7951 vs placebo", "result": 26.2, "unit": "%"}, {"measurement": "Change in baseline scores, PANSS ‘P’ score: difference", "setting": "[1]; CBD vs placebo, all patients, P = 0.0188", "result": "(−1.4)"}, {"measurement": "Change in baseline scores, PANSS total score: difference", "setting": "[1]; CBD vs placebo, all patients, P = 0.1332", "result": "(−2.8)"}, {"measurement": "Change in baseline scores, PANSS ‘G’ score: difference", "setting": "[1]; CBD vs placebo, all patients, P = 0.1963", "result": "(−1.3)"}, {"measurement": "Change in baseline scores, PANSS ‘N’ score: difference", "setting": "[1]; CBD vs placebo, all patients, P = 0.8841", "result": "(−0.1)"}, {"measurement": "Change in baseline scores, PANSS total: difference", "setting": "[1]; CBD vs placebo, patients on amisulpride, P = 0.5543", "result": "(7.9)"}, {"measurement": "Change in baseline scores, PANSS ‘P’ score: difference", "setting": "[1]; CBD vs placebo, patients on amisulpride, P = 0.8241", "result": "(−0.5)"}, {"measurement": "Change in baseline scores, PANSS ‘P’ score: difference", "setting": "[1]; CBD vs placebo, patients on aripiprazole, P = 0.0345", "result": "(−3.1)"}, {"measurement": "Change in baseline scores, PANSS total: difference", "setting": "[1]; CBD vs placebo, patients on aripiprazole, P = 0.1220", "result": "(−6.2)"}, {"measurement": "Change in baseline scores, PANSS total: difference", "setting": "[1]; CBD vs placebo, patients on olanzapine, P = 0.0067", "result": "(−10.7)"}, {"measurement": "Change in baseline scores, PANSS ‘P’ score: difference", "setting": "[1]; CBD vs placebo, patients on olanzapine, P = 0.1434", "result": "(−1.5)"}, {"measurement": "Change in baseline scores, PANSS total: difference", "setting": "[1]; CBD vs placebo, patients on other antipsychotics, P = 0.2746", "result": "(−10.6)"}, {"measurement": "Change in baseline scores, PANSS ‘P’ score: difference", "setting": "[1]; CBD vs placebo, patients on other antipsychotics, P = 0.9550", "result": "(−0.2)"}, {"measurement": "Change in baseline scores, PANSS total: difference", "setting": "[1]; CBD vs placebo, patients on quetiapine, P = 0.6640", "result": "(5.1)"}, {"measurement": "Change in baseline scores, PANSS ‘P’ score: difference", "setting": "[1]; CBD vs placebo, patients on quetiapine, P = 0.7905", "result": "(0.6)"}, {"measurement": "Change in baseline scores, PANSS ‘P’ score: difference", "setting": "[1]; CBD vs placebo, patients on risperidone, P = 0.4625", "result": "(−0.8)"}, {"measurement": "Change in baseline scores, PANSS total: difference", "setting": "[1]; CBD vs placebo, patients on risperidone, P = 0.6470", "result": "(1.8)"}]}
